Laboratory results taken from patent US12083089B2, “Compositions and methods for stimulating ventilatory and/or respiratory drive” (CASE WESTERN RESERVE UNIVERSITY, priority 2015, dated 2024).
Entries after “also recorded” stand apart in the source; their conditions may differ.

What was measured:
humans = settings: oral NAC three times daily, exposed acutely to isocapnic hypoxia; cited from earlier work
[1] = system: conscious male adult Sprague-Dawley rats; assay: Plethysmographic ventilatory responses to test compounds in conscious rats; assay type: in vivo, rat
[2] = system: conscious (adult male) C57 black 6 (C57BL6) mice; assay: Ventilatory responses in conscious mice; assay type: in vivo, mouse
[3] = system: freely moving adult male Sprague-Dawley rats; assay: Whole-body plethysmography of ventilatory parameters in morphine-treated rats; settings: rat, in vivo
Protocol: Permissions, rats, surgical procedures and blinding of protocols. All studies were carried out in accordance with the NIH Guide for the Care and Use of Laboratory Animals (NIH Publication No. […]) revised in 1996. The protocols were approved by the Animal Care and Use Committees of the University of Virginia, Case Western Reserve University and Loma Linda University. In addition, all studies were carried out in compliance with the ARRIVE (Animal Research: Reporting of In Vivo Experiments) guidelines. Adult male Sprague-Dawley rats (Harlan, Madison, WI, USA) were implanted with jugular vein catheters under 2% isoflurane anesthesia and some rats received femoral arterial catheters. The rats were allowed at least four days to recover from surgery before use. All arterial catheters were flushed daily with heparin solution (50 units of heparin in phosphate-buffered saline at 0.1 M, pH 7.4). All catheters were flushed with phosphate-buffered saline (0.1 M, pH 7.4) approximately four hours before commencement of the experiments. All studies were performed in a quiet laboratory with relative humidity of 49±2% and room temperature of 21.4±0.2° C. […] Also, please note that the antinociception and ventilatory studies were done in separate groups of rats so as to not complicate the respiratory measurements. The recording (plethysmography, antinociception) sessions and the arterial blood gas assays were done by a particular investigator who administered the opioid, vehicle or test drug such as d-cystine diME. The syringes containing the vehicle or test drug were made up by another investigator, such that the investigator running the actual experiment was blinded to the treatment protocol. In every case, the data files resulting from a particular study were first collated and analyzed by another investigator in the group.
Ventilatory parameters were recorded in freely moving rats by whole body plethysmography (PLY3223; Data Sciences International, St. Paul, MN). The rats were placed in individual chambers and given 60 min to acclimatize to allow true resting ventilatory parameters to be established. […] The rats received another injection of vehicle or 1-NACme (500 μmol/kg, IV) 15 min later and ventilatory parameters were recorded for a further 60 min.
The provided software (Fine Pointe, BUXCO) constantly corrected digitized values for changes in chamber temperature and humidity. Pressure changes associated with the respiratory waveforms were then converted to volumes (i.e., TV, PIF and PEF) using the algorithm of Epstein and colleagues. Specifically, factoring in chamber temperature and humidity, the cycle analyzers filtered the acquired signals, and BUXCO algorithms (Fine Pointe) generated an array of box flow data that identified a waveform segment as an acceptable breath. From that data vector, the minimum and maximum values were determined. Flows at this point were considered to be “box flow” signals.
The recorded data (1 min bins) and derived parameters, Vt/Ti and Response Area (cumulative percent changes from pre-values) were taken for statistical analyses. The pre-drug 1 min bins excluded occasional marked deviations from resting due to movements or scratching by the rats. These exclusions ensured accurate determinations of baseline parameters. The data are presented as mean±SEM. All data unless other-wise stated (see immediately below) were analyzed by one-way or two-way analysis of variance followed by Student's modified t test with Bonferroni corrections for multiple comparisons between means using the error mean square terms from each ANOVA. A value of P<0.05 denoted the initial level of statistical significance that was modified according to the number of comparisons between means.

freely moving rats = assay: Arterial blood-gas chemistry and A-a gradient in morphine-treated rats; assay type: in vivo, rat
rats = assay: Hemodynamics (preliminary toxicology); assay type: in vivo, rat; settings: 500 μmol/kg, i.v.
From the text: FIGS. 11(A-C) illustrate plots showing the effects of test agents (500 μmol/kg, i.v.) on hemodynamic variables. Data are presented mean±SEM (n=8 rats per group).

adult male rats [4] = assay: Hargreaves Hind-paw Latency Test, morphine 1 mg/kg; assay type: in vivo, rat; settings: for effect on the antinociception actions of morphine (Hargreaves): 500 μmol/kg IV with morphine sulfate 1.0 mg/kg IV; for thermal nociception (Hargreaves Testing) when given alone: 500 μmol/kg IV, tested 20 to 30 min post-injection; for Hargreaves hind-paw withdrawal latency: FIG. 26 study
adult male rats [5] = assay: Von Frey Test, morphine 1 mg/kg; assay type: in vivo, rat; settings: for force needed to initiate hind-paw withdrawal (Von Frey): FIG. 27 study

## CC(=O)N[C@@H](CS)C(=O)O [NAC, N-acetylcysteine]
humans
  increase in minute ventilation: 24±4%

## COC(=O)[C@H](N)CSSC[C@@H](N)C(=O)OC [D-Cystine diME, D-Cystine dimethylester]
[1]; 500 μmol/kg, i.v.
  duration of increases in frequency of breathing, tidal volume and minute ventilation: 20 min
[1]; 500 μmol/kg, i.v., FIG. 2
  total ventilatory responses recorded over the 30 min post-injection period (% baseline), comparison of efficacy: most efficacious of the test compounds
[1]; 500 mol/kg, i.v.
  frequency of breathing, tidal volume and minute ventilation (response): robust increases
  how sustained the ventilatory effect is, compared with D-CYSee and L-CYSee: most sustained effect
[1]; FIG. 3
  dose-dependency of ventilatory responses: clearly dose-dependent
[2]
  duration of increases in frequency of breathing, tidal volume and minute ventilation: approximately 20 min
[2]; 250 mol/kg dose
  frequency of breathing, tidal volume and minute ventilation (response): robust increases
[3]
  immediate effects on Freq, TV or MV: minimal immediate effects
Freely moving rats; bolus 500 μmol/kg i.v. after morphine 10 mg/kg i.v., Example 1
  deleterious actions of morphine on ABG chemistry and A-a gradient: reversed
Freely moving rats; freely moving rats, morphine 10 mg/kg IV, then drug 500 μmol/kg IV 15 min later, FIG. 18
  changes in ABG chemistry (pH, pCO2, pO2 and sO2): reversed immediately
Freely moving rats; freely moving rats, morphine 10 mg/kg IV, then drug 500 μmol/kg IV 15 min later, FIG. 19
  changes in A-a gradient: reversed immediately
rats
  hemodynamic responses (FIG. 11): minimal responses; also recorded: did not elicit significant responses
Adult male rats [4]; listed as D-cystine diME
  effect on the antinociception actions of morphine (Hargreaves): not different from each other
Adult male rats [4]; listed as d-cystine diME
  effect on the antinociception actions of morphine (Hargreaves): neither thiolester affected
  thermal nociception (Hargreaves Testing) when given alone: neither d-cystine diME nor L-cystine diME affected
Adult male rats [4]
  thermal nociception (Hargreaves Testing) when given alone: not a significant difference
Adult male rats [4]; Morphine+D-Cystine diME
  Hargreaves hind-paw withdrawal latency: 16.9 ± 1.0 s
Adult male rats [4]; given alone, D-cystine diME 500 μmol/kg IV, morphine sulfate 1 mg/kg IV
  Hargreaves hind-paw withdrawal latency: 12.9 ± 1.0 s
Adult male rats [5]; 500 μmol/kg IV with morphine sulfate 1.0 mg/kg IV, listed as d-cystine diME
  effect on the antinociception actions of morphine (Von Frey): neither thiolester affected
Adult male rats [5]; 500 μmol/kg IV, tested 20 to 30 min post-injection, listed as d-cystine diME
  mechanical allodynia (Von Frey Testing) when given alone: neither d-cystine diME nor L-cystine diME affected
Adult male rats [5]; Morphine+D-cystine diME
  force needed to initiate hind-paw withdrawal (Von Frey): 176±5 grams
Adult male rats [5]; given alone, D-cystine diME 500 μmol/kg IV, morphine 1 mg/kg IV
  force needed to initiate hind-paw withdrawal (Von Frey): 144±8 grams
